Reference: patent US20080064667A1, “OXAZOLE DERIVATIVES OF TETRACYCLINES” (Wyeth, priority 2003, published 2008)
In brackets after ≈: the same amount, converted by molar mass.

Experiments:
Test in all cases: MIC, broth microdilution (NCCLS)
Format in all cases: cell-based
[1] = tested on: S. aureus GC1131 (Clinical); details: Staphylococcus aureus, Mueller-Hinton II broth, 18-22 hours at 35° C.
Experimental: (§1) Methods for in Vitro Antibacterial Evaluation
(§2) The Minimum Inhibitory Concentration (MIC)
(§3) Antimicrobial susceptibility testing. The in vitro activities of the antibiotics are determined by the broth microdilution method as recommended by the National Committee for Clinical Laboratory Standards (NCCLS) (1). Mueller-Hinton II broth (MHBII)(BBL Cockeysville, Md.) is the medium employed in the testing procedures. Microtiter plates containing serial dilutions of each antimicrobial agent are inoculated with each organism to yield the appropriate density (10^5 CFU/ml) in a 100 μl final volume. The plates are incubated for 18-22 hours at 35° C. in ambient air.
(§4) 1. NCCLS. 2000. Methods for Dilution Antimicrobial Susceptibility Tests for Bacteria That Grow Aerobically; Approved Standards: M7-A5, vol. 20. National Committe for Clinical Laboratory Standards, Wayne, Pa.

[2] = tested on: E. faecalis GC2242 (Van-resistant); details: Enterococcus faecalis, Mueller-Hinton II broth, 18-22 hours at 35° C.
Experimental: as §1, §2, §3, §4

[3] = tested on: S. aureus GC2216 (ATCC Control); details: Staphylococcus aureus, Mueller-Hinton II broth, 18-22 hours at 35° C.
Experimental: as §1, §2, §3, §4

[4] = tested on: S. pneumoniae* GC1894 (Clinical); details: Streptococcus pneumoniae, Mueller-Hinton II broth, 18-22 hours at 35° C.
Experimental: as §1, §2, §3, §4

[5] = tested on: E. coli GC4559 (parent GC4560); details: Escherichia coli, Mueller-Hinton II broth, 18-22 hours at 35° C.
Experimental: as §1, §2, §3, §4

[6] = tested on: S. pneumoniae* GC4465 (Clinical); details: Streptococcus pneumoniae, Mueller-Hinton II broth, 18-22 hours at 35° C.
Experimental: as §1, §2, §3, §4

[7] = tested on: S. pyogenes* GC4563 (Clinical); details: Streptococcus pyogenes, Mueller-Hinton II broth, 18-22 hours at 35° C.
Experimental: as §1, §2, §3, §4

[8] = tested on: S. aureus GC6466 (tet(M)); details: Staphylococcus aureus, Mueller-Hinton II broth, 18-22 hours at 35° C.
Experimental: as §1, §2, §3, §4

[9] = tested on: E. coli GC2203 (ATCC Control); details: Escherichia coli, Mueller-Hinton II broth, 18-22 hours at 35° C.
Experimental: as §1, §2, §3, §4

[10] = tested on: M. catarrhalis* GC6907 (Clinical); details: Moraxella catarrhalis, Mueller-Hinton II broth, 18-22 hours at 35° C.
Experimental: as §1, §2, §3, §4

[11] = tested on: S. aureus GC4536 (Smith MP -In Vivo); details: Staphylococcus aureus, Mueller-Hinton II broth, 18-22 hours at 35° C.
Experimental: as §1, §2, §3, §4

[12] = tested on: H. influenzae<> GC6896 (ATCC Control); details: Haemophilus influenzae, Mueller-Hinton II broth, 18-22 hours at 35° C.
Experimental: as §1, §2, §3, §4

E. coli GC1073 (tet(B)) = details: Escherichia coli
Experimental: as §1, §2, §3, §4

[13] = tested on: E. faecalis GC4555 (ATCC Control); details: Enterococcus faecalis, Mueller-Hinton II broth, 18-22 hours at 35° C.
Experimental: as §1, §2, §3, §4

[14] = tested on: E. coli GC4560 (IMP mutant); details: Escherichia coli
Experimental: as §1, §2, §3, §4

[15] = tested on: S. aureus GC1079 (tet(K)); details: Staphylococcus aureus, Mueller-Hinton II broth, 18-22 hours at 35° C.
Experimental: as §1, §2, §3, §4

E. coli GC2270 (tet(M)) = details: Escherichia coli
Experimental: as §1, §2, §3, §4

[16] = tested on: C. albicans GC3066 ATCC (Control); details: Candida albicans, Mueller-Hinton II broth, 18-22 hours at 35° C.
Experimental: as §1, §2, §3, §4

| Compound | MIC [1] [µg/mL] | MIC [2] [µg/mL] | MIC [3] [µg/mL] | MIC [4] [µg/mL] | MIC [5] [µg/mL] | MIC [6] [µg/mL] | MIC [7] [µg/mL] | MIC [8] [µg/mL] | MIC [9] [µg/mL] | MIC [10] [µg/mL] | MIC [11] [µg/mL] | MIC [12] [µg/mL] | MIC (E. coli GC1073 (tet(B))) [µg/mL] | MIC [13] [µg/mL] | MIC [14] [µg/mL] | MIC [15] [µg/mL] | MIC (E. coli GC2270 (tet(M))) [µg/mL] | MIC [16] [µg/mL] |
| --- | --- | --- | --- | --- | --- | --- | --- | --- | --- | --- | --- | --- | --- | --- | --- | --- | --- | --- |
| CN(C)c1cc2nc(-c3ccc(C#N)cc3)oc2c2c1C[C@H]1C[C@H]3[C@H](N(C)C)C(O)=C(C(N)=O)C(=O)[C@@]3(O)C(O)=C1C2=O [Example 7, (6aR,7aS,8S,11aS)-2-(4-cyanophenyl)-5,8-bis(dimethylamino)-9,11a,12-trihydroxy-11,13-dioxo-6,6a,7,7a,8,11,11a,13-octahydrotetraceno[2,1-d][1,3]oxazole-10-carboxamide] | 8 (≈ 13.7 µM) | 8 (≈ 13.7 µM) | 8 (≈ 13.7 µM) | 16 (≈ 27.4 µM) | > 64 | 8 (≈ 13.7 µM) | 8 (≈ 13.7 µM) | 8 (≈ 13.7 µM) | > 64 | 4 (≈ 6.85 µM) | 8 (≈ 13.7 µM) | 64 (≈ 110 µM) | > 64 | 8 (≈ 13.7 µM) | 8 (≈ 13.7 µM) | 8 (≈ 13.7 µM) | > 64 | > 64 |
| CN(C)c1cc2nc(-c3cc4ccccc4n3C)oc2c2c1C[C@H]1C[C@H]3[C@H](N(C)C)C(O)=C(C(N)=O)C(=O)[C@@]3(O)C(O)=C1C2=O [Example 19, (6aR,7aS,8S,11aS)-5,8-bis(dimethylamino)-9,11a,12-trihydroxy-2-(1-methyl-1H-indol-2-yl)-11,13-dioxo-6,6a,7,7a,8,11,11a,13-octahydrotetraceno[2,1-d][1,3]oxazole-10-carboxamide] | 4 (≈ 6.54 µM) | 4 (≈ 6.54 µM) | 4 (≈ 6.54 µM) | 4 (≈ 6.54 µM) | > 64 | 4 (≈ 6.54 µM) | 8 (≈ 13.1 µM) | 4 (≈ 6.54 µM) | > 64 | 16 (≈ 26.2 µM) | 8 (≈ 13.1 µM) | > 64 | > 64 | 8 (≈ 13.1 µM) | 4 (≈ 6.54 µM) | 4 (≈ 6.54 µM) | > 64 | > 64 |
| CN(C)c1cc2nc(C(C)(C)C)oc2c2c1C[C@H]1C[C@H]3[C@H](N(C)C)C(O)=C(C(N)=O)C(=O)[C@@]3(O)C(O)=C1C2=O [Example 4, (6aR,7aS,8S,11aS)-2-tert-butyl-5,8-bis(dimethylamino)-9,11a,12-trihydroxy-11,13-dioxo-6,6a,7,7a,8,11,11a,13-octahydrotetraceno[2,1-d][1,3]oxazole-10-carboxamide] | 16 (≈ 29.7 µM) | 32 (≈ 59.4 µM) | 32 (≈ 59.4 µM) | 32 (≈ 59.4 µM) | > 64 | 16 (≈ 29.7 µM) | 16 (≈ 29.7 µM) | 32 (≈ 59.4 µM) | > 64 | 16 (≈ 29.7 µM) | 32 (≈ 59.4 µM) | > 64 | > 64 | 32 (≈ 59.4 µM) | 16 (≈ 29.7 µM) | 16 (≈ 29.7 µM) | > 64 | > 64 |
| COc1cc(OC)c(-c2nc3cc(N(C)C)c4c(c3o2)C(=O)C2=C(O)[C@]3(O)C(=O)C(C(N)=O)=C(O)[C@@H](N(C)C)[C@@H]3C[C@@H]2C4)c(OC)c1 [Example 15, (6aR,7aS,8S,11aS)-5,8-bis(dimethylamino)-9,11a,12-trihydroxy-11,13-dioxo-2-(2,4,6-trimethoxyphenyl)-6,6a,7,7a,8,11,11a,13-octahydrotetraceno[2,1-d][1,3]oxazole-10-carboxamide] | 64 (≈ 98.7 µM) | 64 (≈ 98.7 µM) | 64 (≈ 98.7 µM) | > 64 | > 64 | > 64 | > 64 | 64 (≈ 98.7 µM) | > 64 | 64 (≈ 98.7 µM) | 64 (≈ 98.7 µM) | > 64 | > 64 | 64 (≈ 98.7 µM) | 32 (≈ 49.3 µM) | 64 (≈ 98.7 µM) | > 64 | > 64 |
| COc1ccc(/C=C/c2nc3cc(N(C)C)c4c(c3o2)C(=O)C2=C(O)[C@]3(O)C(=O)C(C(N)=O)=C(O)[C@@H](N(C)C)[C@@H]3C[C@@H]2C4)cc1 [Example 26, (6aR,7aS,8S,11aS)-5,8-bis(dimethylamino)-9,11a,12-trihydroxy-2-[(E)-2-(4-methoxyphenyl)ethenyl]-11,13-dioxo-6,6a,7,7a,8,11,11a,13-octahydrotetraceno[2,1-d][1,3]oxazole-10-carboxamide] | 16 (≈ 26 µM) | 16 (≈ 26 µM) | 16 (≈ 26 µM) | > 64 | > 64 | > 64 | 64 (≈ 104 µM) | 16 (≈ 26 µM) | > 64 | > 64 | 32 (≈ 52.1 µM) | > 64 | > 64 | 32 (≈ 52.1 µM) | 32 (≈ 52.1 µM) | 32 (≈ 52.1 µM) | > 64 | > 64 |
| CN(C)c1cc2nc(-c3cccnc3)oc2c2c1C[C@H]1C[C@H]3[C@H](N(C)C)C(O)=C(C(N)=O)C(=O)[C@@]3(O)C(O)=C1C2=O [Example 34, (6aR,7aS,8S,11aS)-5,8-bis(dimethylamino)-9,11a,12-trihydroxy-11,13-dioxo-2-pyridin-3-yl-6,6a,7,7a,8,11,11a,13-octahydrotetraceno[2,1-d][1,3]oxazole-10-carboxamide] | 32 (≈ 57.2 µM) | 32 (≈ 57.2 µM) | 32 (≈ 57.2 µM) | 64 (≈ 114 µM) | > 64 | 32 (≈ 57.2 µM) | 32 (≈ 57.2 µM) | 64 (≈ 114 µM) | > 64 | 16 (≈ 28.6 µM) | 64 (≈ 114 µM) | > 64 | > 64 | 32 (≈ 57.2 µM) | 32 (≈ 57.2 µM) | 32 (≈ 57.2 µM) | > 64 | > 64 |
| CN(C)c1cc2nc(-c3nccs3)oc2c2c1C[C@H]1C[C@H]3[C@H](N(C)C)C(O)=C(C(N)=O)C(=O)[C@@]3(O)C(O)=C1C2=O [Example 24, (6aR,7aS,8S,11aS)-5,8-bis(dimethylamino)-9,11a,12-trihydroxy-11,13-dioxo-2-(1,3-thiazol-2-yl)-6,6a,7,7a,8,11,11a,13-octahydrotetraceno[2,1-d][1,3]oxazole-10-carboxamide] | 32 (≈ 56.6 µM) | 32 (≈ 56.6 µM) | 64 (≈ 113 µM) | 64 (≈ 113 µM) | > 64 | 64 (≈ 113 µM) | 32 (≈ 56.6 µM) | 32 (≈ 56.6 µM) | > 64 | > 64 | 32 (≈ 56.6 µM) | > 64 | > 64 | 32 (≈ 56.6 µM) | 32 (≈ 56.6 µM) | 32 (≈ 56.6 µM) | > 64 | > 64 |
| CN(C)c1cc2nc(-c3cc(C(C)(C)C)ccc3O)oc2c2c1C[C@H]1C[C@H]3[C@H](N(C)C)C(O)=C(C(N)=O)C(=O)[C@@]3(O)C(O)=C1C2=O [Example 10, (6aR,7aS,8S,11aS)-2-(5-tert-butyl-2-hydroxyphenyl)-5,8-bis(dimethylamino)-9,11a,12-trihydroxy-11,13-dioxo-6,6a,7,7a,8,11,11a,13-octahydrotetraceno[2,1-d][1,3]oxazole-10-carboxamide] | 8 (≈ 12.7 µM) | 8 (≈ 12.7 µM) | 16 (≈ 25.4 µM) | 8 (≈ 12.7 µM) | > 64 | 16 (≈ 25.4 µM) | 16 (≈ 25.4 µM) | 16 (≈ 25.4 µM) | > 64 | > 64 | 16 (≈ 25.4 µM) | > 64 | > 64 | 16 (≈ 25.4 µM) | 32 (≈ 50.7 µM) | 16 (≈ 25.4 µM) | > 64 | > 64 |
